Values of other authors, collected in patent publication US10881700B1, “Compositions including extracts of gray mangrove leaves and methods of treatment using such compositions in treatment of viral infections” (KING ABDULLAH UNIVERSITY OF SCIENCE AND TECHNOLOGY, priority 2016, dated 2021).

Assays:
HIV-1 reactivation = settings: reference [26]
HIV-1 integrase = HIV-1 integrase (Human immunodeficiency virus type 1 group M subtype B, UniProt P04585); settings: reference [24]

SMILES | blocking HIV-1 reactivation in cases of virus latency (HIV-1 reactivation) | activity against HIV-1 integrase (HIV-1 integrase)
COc1ccccc1O [gluaiacol, 2-Methoxy phenol] | efficient in blocking HIV-1 reactivation | 
COC(=O)C=Cc1ccccc1 [Methyl cinnamate] |  | not demonstrated activity
